Data set [1] addresses T1, BuChE (Equus caballus, UniProt P81908).
T1 construct: butyrylcholinesterase (BuChE, E.C. 3.1.1.8, from equine serum); purchased Sigma-Aldrich (Steinheim, Germany); host or cells: equine serum (natural source)
The experiment in a line: Kinetic characterization of BuChE inhibition (Lineweaver–Burk). To be noted: for υmax: BuChE; for Mechanism of BuChE inhibition: Lineweaver–Burk plots analysis. It is filed as biochemical. As to the method:
(§1) The kinetic analysis was evaluated according to the Ellman’s method. Plots of 1/velocity versus the reciprocal substrate concentration were constructed at different final concentrations of the ATC iodide in the range of 100–10 µM. The studies were carried out using the final concentrations of 1 inhibitor: (AChE: 0.25, 1.0 µM; BuChE: 0.25, 1.2 µM) and 5 (AChE: 0.1, 1.0 µM; BuChE: 0.25, 0.55 µM) and without it. The tested medium contained DTNB solution (0.4 mg/mL), AChE solution (2 U/mL) or BuChE solution (4 U/mL), solution of the examined compound, and different concentrations of the ATC iodide substrate solution. Absorbance was detected at 412 nm at room temperature after 7 min. The obtained data were calculated and presented on the Lineweaver–Burk plot. The determined the Michaelis-Menten constant (KM) and the maximum velocity of the enzyme (υmax) values were used to define the type of enzyme inhibition.
The mechanism of AChE inhibition was investigated for inhibitors 1 and 5 as the most valuable compounds. The Lineweaver–Burk plots present 1/velocity versus 1/substrate concentrations in the range of 100–10 µM for compounds 5 (0.1, 1.0 µM) and 1 (0.25, 1.0 µM) and without inhibitors (0 µM) (Figure 2).

A short description of data set [2]: RP-18 HPLC chromatography lipophilicity estimation. Type of data set: physicochemical. The settings on record: for −S (slope): methanol/acetate buffer pH 4.0; for log kw (intercept): methanol/acetate buffer pH 4.0, extrapolated to pure water. As for the experimental part: The Eurosil Bioselect C18 (5 μm, 300 × 4.6 mm) column was used as the stationary phase. The mobile phase consisted of different volume mixtures of methanol and 20 mM acetate buffer as the aqueous phase to give pH 4.0. The organic modifier concentration ranged from 0.30 to 0.75, depending on the structure of the compound at 0.05 (0.1) intervals. The flow rate was 0.5 cm^3·min^−1 at room temperature. Measurements were made at 292 nm. The retention time of an unretained solute (t0) was determined by the injection of a small amount of acetone dissolved in water. […] This is described by the Soczewiński–Wachtmeister dependence: log k = log kw + S (% organic modifier)(1) in which log kw is the retention factor of a solute with pure water as the mobile phase (intercept) and S is the regression curve (slope). The log k values were calculated as log k = log (tR − t0)/t0, where tR is the retention time of a solute and t0 is the retention time of an unretained solute.
To find the structure–activity relationships, some quantities of the compounds were estimated (Table 5). They included the lipophilicity parameter log kw obtained by RP-HPLC and calculated in silico log P, the topological polar surface area (tPSA), and the molar refractivity (MR) (Table 5). The log kw and S parameters obtained by the extrapolation technique are commonly used as lipophilicity descriptors.

Data set [3] addresses T2, Acetylcholinesterase (AChE, E.C. 3.1.1.7, from human erythrocytes) (Homo sapiens, UniProt P22303).
T2 construct: Acetylcholinesterase (AChE, E.C. 3.1.1.7, from human erythrocytes); purchased Sigma-Aldrich (Steinheim, Germany); host or cells: human erythrocytes (natural source)
The experiment in a line: biochemical. It is filed as biochemical. To be noted: for Selectivity for AChE: IC50(BuChE)/IC50(AChE); for IC50: means ± SD of three independent experiments. As for the experimental part: (§2) The details were described previously.
(§3) Their potency was determined using the modified Ellman’s method and expressed as the half of maximal inhibitory concentration, IC50 [34].

Data set [4] concerns the target T3, butyrylcholinesterase (BuChE, E.C. 3.1.1.8, from equine serum) (Equus caballus, UniProt P81908).
T3 construct: butyrylcholinesterase (BuChE, E.C. 3.1.1.8, from equine serum); purchased Sigma-Aldrich (Steinheim, Germany); host or cells: equine serum (natural source)
The experiment in a line: biochemical. The settings on record: means ± SD of three experiments; read-out: BuChE IC50. As for the experimental part: as §2, §3

The nature of data set [5]: In vitro antioxidant activity assay (DPPH radical scavenging). To be noted: DPPH 100 μM in methanol, 37 °C, 30 min; means ± SD of three experiments; read-out: IC50(DPPH) radical scavenging effect. As to the method:
Antioxidant activity of each compound and standards (rutin) was assessed based on the radical scavenging effect of stable DPPH free radical. An amount of 10 μL of each tested compound or standard series of different concentrations (from 0.0 to 100 µM) was added to 9 mL of methanol solution of 2,2-diphenyl-1-picrylhydrazyl (DPPH) (100 μM). After incubation at 37 °C for 30 min, decrease in the absorbance of each solution was measured at 520 nm. The absorbance of the blank sample containing the same amount of DMSO and DPPH solution was also prepared and measured. All experiments were conducted in triplicate. The scavenging potential was compared with a solvent control (0% radical scavenging) and the standard compound. Radical scavenging activity (%AA) was calculated by the following formula: (%AA) = [(A0 − A1)/A0] × 100%(3) in which (A0) is the absorbance of the blank sample and (A1) is the absorbance of the tested compound (t = 30 min).
Reactive oxygen species are a causal factor in the process of aging and the cumulative damage has been associated with AD [45]. In this study, the DPPH radical scavenging activity of the newly synthesized compounds was estimated using the Brand-Williams method.
Background: DPPH is a stable violet radical that fades when it is reduced.

Data set [6] deals with T4, AChE (Homo sapiens, UniProt P22303).
T4 construct: Acetylcholinesterase (AChE, E.C. 3.1.1.7, from human erythrocytes); purchased Sigma-Aldrich (Steinheim, Germany); host or cells: human erythrocytes (natural source)
T4 sequence (P22303 32-617 isoform P22303-2 limits assumed): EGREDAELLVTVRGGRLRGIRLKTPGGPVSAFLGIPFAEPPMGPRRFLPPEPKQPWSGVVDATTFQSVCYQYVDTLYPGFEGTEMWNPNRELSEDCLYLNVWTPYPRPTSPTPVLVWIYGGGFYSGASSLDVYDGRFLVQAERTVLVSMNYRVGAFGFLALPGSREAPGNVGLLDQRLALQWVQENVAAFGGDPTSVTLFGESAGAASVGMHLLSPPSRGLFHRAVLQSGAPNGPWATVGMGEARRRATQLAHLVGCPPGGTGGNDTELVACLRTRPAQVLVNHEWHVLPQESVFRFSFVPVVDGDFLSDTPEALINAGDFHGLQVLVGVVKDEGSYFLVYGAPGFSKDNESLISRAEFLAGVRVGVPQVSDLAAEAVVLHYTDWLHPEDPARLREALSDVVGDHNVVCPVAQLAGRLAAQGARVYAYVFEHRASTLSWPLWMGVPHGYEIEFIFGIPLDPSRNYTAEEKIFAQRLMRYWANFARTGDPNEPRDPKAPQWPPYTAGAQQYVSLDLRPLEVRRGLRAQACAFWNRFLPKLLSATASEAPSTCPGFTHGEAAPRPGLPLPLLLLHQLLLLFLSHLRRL
The experiment in a line: Kinetic characterization of AChE inhibition (Lineweaver–Burk). Type of data set: biochemical. To be noted: for υmax: AChE; for Type of AChE inhibition: Lineweaver–Burk plots analysis. As for the experimental part: as §1, with “The studies were carried out using the final concentrations of 1 inhibitor: (AChE: 0.25, 1.0 µM; BuChE: 0.25, 1.2 µM) and 5 (AChE: 0.1, 1.0 µM; BuChE: 0.25, 0.55 µM) and without it.” left out
The mechanism of AChE inhibition was investigated for inhibitors 1 and 5 as the most valuable compounds. […]

The target of data set [7] is T5, Amyloid β-peptide (1–42) (Aβ42) (Homo sapiens, UniProt P05067).
T5 construct: Amyloid β-peptide, (1–42) (Aβ42), was purchased from Aldrich; purchased Aldrich
T5 sequence (P05067 672-713 limits assumed): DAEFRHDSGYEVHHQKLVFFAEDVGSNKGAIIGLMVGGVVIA
The experiment in a line: biochemical. To be noted: ThT fluorescence, 24 h at 37 °C; means ± SD of three experiments; read-out: IC50(Aβ(1–42)) self-induced aggregation. As to the method:
Amyloid β-peptide, (1–42) (Aβ42), was purchased from Aldrich. Aβ42 was diluted in the phosphate buffer (pH 8.0) to obtain a 125.8 µM solution. The compounds under study were first dissolved in a small amount of methanol, and then further diluted in the phosphate buffer to the final concentration of 5–160 μM. To study the Aβ42 aggregation inhibition, the fluorescence emission of thioflavin T (ThT) was followed with curcumin as the reference compound [35, 36]. At first, the Aβ42 (10 μL) samples and the tested compounds (10 μL) were diluted with the phosphate buffer (60 μL) and then they were incubated for 24 h at 37 °C without stirring. As for the control, a sample of the peptide was incubated without the inhibitor. The tests were carried out in black, flat-bottom, 96-well plates. Then 20 µL of 2.5 µM ThT in 50 mM glycine–NaOH (pH 8.5) was added and incubated for 5 min. Fluorescence was monitored with the excitation at 446 nm and the emission at 490 nm. A time scan of fluorescence was performed and the intensity values reached the plateau (300 s). […]. The reported values were obtained as the mean ± SD of triplicate of three independent experiments.
Nowadays, the amyloid hypothesis has become the dominating paradigm for understanding AD [44]. Aβ(1–42) is the most amyloidogenic Aβ fragment found in the AD plaques. […].

Where [8] appears, read: inhibitor concentration 0.25 µM.

Each structure is given as a SMILES string.

By IC50 is commonly meant the concentration that inhibits the measured activity by half.

T1 sequence (P81908 whole entry): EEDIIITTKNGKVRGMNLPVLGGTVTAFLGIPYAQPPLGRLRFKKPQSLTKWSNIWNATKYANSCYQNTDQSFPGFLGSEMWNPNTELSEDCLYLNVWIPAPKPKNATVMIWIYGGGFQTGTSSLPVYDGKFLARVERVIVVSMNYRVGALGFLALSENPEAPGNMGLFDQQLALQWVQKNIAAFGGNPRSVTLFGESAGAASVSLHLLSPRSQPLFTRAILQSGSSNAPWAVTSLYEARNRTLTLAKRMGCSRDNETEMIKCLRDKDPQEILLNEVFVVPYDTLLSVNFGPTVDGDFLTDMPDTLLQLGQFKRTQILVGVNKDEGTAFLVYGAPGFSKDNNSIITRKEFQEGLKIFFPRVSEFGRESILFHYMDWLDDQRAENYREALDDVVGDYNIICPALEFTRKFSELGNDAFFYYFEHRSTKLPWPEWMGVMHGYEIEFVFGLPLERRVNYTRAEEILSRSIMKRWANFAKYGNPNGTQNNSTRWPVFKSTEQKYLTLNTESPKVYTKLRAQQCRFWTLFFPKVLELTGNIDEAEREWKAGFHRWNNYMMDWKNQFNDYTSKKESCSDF
T2 sequence (P22303 32-617 isoform P22303-2 limits assumed): as the sequence (P22303 32-617 isoform P22303-2 limits assumed) above
T3 sequence (P81908 whole entry): as the sequence (P81908 whole entry) above

As for `Oc1cc(O)c(-c2nc3ccccc3[nH]2)cc1Cl` [Compound 1, 4-(1H-benzimidazol-2-yl)-6-chlorobenzene-1,3-diol], the υmax came to 322.58 A min^−1 in data set [1] (setting [8]), 163.93 A min^−1 in data set [1] (inhibitor concentration 1.2 µM), 135.14 A min^−1 in data set [6] (inhibitor concentration 0.25 μM) and 105.26 A min^−1 in data set [6] (inhibitor concentration 1.0 μM). The “Mechanism of BuChE inhibition” value in data set [1] is “the same relationships as in the case of AChE”. Also, in data set [2], the “−S (slope)” value is reported as 3.896. For the same compound, the “log kw (intercept)” value in data set [2] was 3.602. For the same compound, the “Activity against AChE (in words)” value in data set [3] is on record as “active”. Also, the “Selectivity for AChE” value in data set [3] is recorded as 55.8. Further, the IC50 in data set [3] came out at 76 ± 2 nM; in data set [4] it was 4240 ± 205 nM; in data set [5], 641 ± 30 nM; in data set [7], 48000 ± 3430 nM. In addition, in data set [6], the “Type of AChE inhibition” value is on record as “mixed type of inhibition”.

In the case of `COc1ccc2nc(-c3ccc(O)c(C)c3O)[nH]c2c1` [Compound 5, 4-(6-Methoxy-1H-benzimidazol-2-yl)-2-methylbenzene-1,3-diol], the υmax in data set [1] (setting [8]) amounted to 196.08 A min^−1; in data set [1] (inhibitor concentration 0.55 µM), 178.57 A min^−1; in data set [6] (inhibitor concentration 0.15 μM), 175.44 A min^−1; in data set [6] (inhibitor concentration 1.0 μM) it was 120.48 A min^−1. The “Mechanism of BuChE inhibition” value in data set [1] is given as “the same relationships as in the case of AChE”. For the same compound, the “−S (slope)” value in data set [2] is on record as 5.179. The “log kw (intercept)” value in data set [2] is given as 4.591. Moreover, in data set [3], the “Activity against AChE (in words)” value is listed as “active”. In data set [3], the “Selectivity for AChE” value was 1.4. Further, the IC50 in data set [3] was 86 ± 21 nM; in data set [4], 117 ± 41 nM; in data set [5] it was 627 ± 110 nM; in data set [7], 33100 ± 2070 nM. Besides, in data set [6], the “Type of AChE inhibition” value is reported as “mixed type of inhibition”.

The values are drawn from article PMC6995558, “Biological Evaluation, Molecular Docking, and SAR Studies of Novel 2-(2,4-Dihydroxyphenyl)-1H- Benzimidazole Analogues” (Biomolecules, 2019).
